US8242145B2, “Cyclic diaryl ether compounds as antagonists of prostaglandin D2 receptors” (Panmira Pharmaceuticals, LLC, priority 2008, dated 2012)

How the values were obtained:
[1] = molecular target: T1, human DP2 receptor (Homo sapiens, UniProt Q9Y5Y4); test: DP2/CRTH2 radioligand binding assay using [3H]PGD2; settings: hDP2 (CRTH2) binding assay
T1 construct: expressed in transfected cells
T1 sequence (Q9Y5Y4 1-395): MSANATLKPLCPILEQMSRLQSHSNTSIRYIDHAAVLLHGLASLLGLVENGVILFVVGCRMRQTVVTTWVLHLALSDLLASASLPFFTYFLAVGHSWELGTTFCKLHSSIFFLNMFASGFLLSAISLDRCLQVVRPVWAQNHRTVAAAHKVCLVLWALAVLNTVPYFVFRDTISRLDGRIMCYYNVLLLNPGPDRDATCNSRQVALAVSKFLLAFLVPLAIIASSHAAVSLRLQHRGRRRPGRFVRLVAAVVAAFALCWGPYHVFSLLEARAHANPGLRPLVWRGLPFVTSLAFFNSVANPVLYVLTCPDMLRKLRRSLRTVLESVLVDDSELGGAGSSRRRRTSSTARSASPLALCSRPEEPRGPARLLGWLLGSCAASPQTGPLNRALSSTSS
Procedure: The ability of a compound to bind to the human DP2 receptor is assessed via a radioligand binding assay using [^3H]PGD2. HEK293 cells stably expressing recombinant human DP2 are resuspended in 10 mM Hepes, 7.4 containing 1 mM DTT, lysed and centrifuged at 75,000×g to pellet the membranes. The membranes are resuspended in 10 mM Hepes, 7.4 containing 1 mM DTT and 10% glycerol to approximately 5 mg protein/ml. Membranes (2-10 μg protein/well) are incubated in 96-well plates with 1 nM [^3H]PGD2 and test compound in Assay Buffer (50 mM Hepes, 10 mM MnCl2, 1 mM EDTA, plus or minus 0.2% human serum albumin, pH 7.4) for 60 minutes at room temperature. The reactions are terminated by rapid filtration through Whatman GF/C glass fibre filter plates. The filter plates were pre-soaked in 0.33% polythylenimine for 30 minutes at room temperature then washed in Wash Buffer (50 mM Hepes, 0.5 M NaCl pH 7.4) prior to harvesting. After harvesting, the filter plates are washed 3 times with 1 ml cold Wash Buffer then dried. Scintillant is then added to the plates and the radioactivity retained on the filters is determined on a Packard TopCount (Perkin Elmer). Specific binding is determined as total radioactive binding minus non-specific binding in the presence of 10 μM PGD2. IC50s were determined using GraphPad prism analysis of drug titration curves.

[2] = molecular target: T2, recombinant human CRTH2 receptor (Homo sapiens, UniProt Q9Y5Y4); test: GTPγS binding assay; type: biochemical; settings: +HSA; read-out: hDP2 GTPγS μM (+HSA)
T2 construct: expressed in transfected cells
T2 sequence (Q9Y5Y4 1-395): T1 sequence (Q9Y5Y4 1-395)
Procedure: The ability of a compound to inhibit binding of GTP to DP2 is assessed via a membrane GTPγS assay. CHO cells stably expressing the recombinant human CRTH2 receptor are resuspended in 10 mM Hepes, 7.4 containing 1 mM DTT, lysed and centrifuged at 75,000×g to pellet the membranes. The membranes are resuspended in 10 mM Hepes, 7.4 containing 1 mM DTT and 10% glycerol. Membranes (˜12.5 μg per well) are incubated in 96-well plates with 0.05 nM [^35S]-GTPγS, 80 nM PGD2, 5 μM GDP, and test compound in Assay Buffer (50 mM Hepes, pH 7.4, 100 mM NaCl, 5 mM MgCl2 and 0.2% human serum albumin) for 60 minutes at 30° C. The reactions are terminated by rapid filtration through Whatman GF/B glass fibre filter plates. The filter plates are washed 3 times with 1 ml cold Assay Buffer and dried. Scintillant is then added to the plates and the radioactivity retained on the filters is determined on a Packard TopCount (Perkin Elmer). Specific binding is determined as total radioactive binding minus non-specific binding in the absence of the ligand (80 nM PGD2). IC50s were determined using Graphpad prism analysis of drug titration curves.

[3] = molecular target: T3, human DP1 receptor (Homo sapiens, UniProt Q13258); test: DP1 radioligand binding assay using [3H]BWA868C; settings: hDP1 binding
T3 construct: tissue Biological Specialty Corporation; host or cells: human platelets, membranes
T3 sequence (Q13258 1-359): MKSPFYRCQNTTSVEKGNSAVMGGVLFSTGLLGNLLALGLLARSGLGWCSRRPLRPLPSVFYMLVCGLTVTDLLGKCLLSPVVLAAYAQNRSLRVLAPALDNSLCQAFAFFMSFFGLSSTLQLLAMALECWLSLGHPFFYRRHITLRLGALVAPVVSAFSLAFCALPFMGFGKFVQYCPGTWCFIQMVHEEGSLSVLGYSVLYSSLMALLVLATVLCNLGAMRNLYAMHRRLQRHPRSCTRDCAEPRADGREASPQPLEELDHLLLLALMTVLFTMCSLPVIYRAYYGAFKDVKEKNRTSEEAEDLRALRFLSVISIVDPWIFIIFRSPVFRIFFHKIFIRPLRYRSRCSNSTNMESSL
Procedure: The ability of a compound to bind to the human DP1 receptor was evaluated via a radioligand membrane binding assay using the DP1 selective synthetic ligand [^3H]BW A868C. Packed human platelets (Biological Specialty Corporation), were resuspended in 6 volumes of Hepes/HBSS buffer (10 mM Hepes, 1 mM DTT in Hanks Balanced Salt Solution (HBSS)), lysed and centrifuged at 75,000×g to pellet the membranes. Membranes were resuspended in Hepes/HBSS buffer to approximately 12 mg protein/ml. Membranes (20 μg protein/well) are incubated in 96-well plates with 2 nM [^3H]BWA868C and test compound in Assay Buffer (50 mM Hepes, 10 mM MnCl2, 1 mM EDTA, plus or minus 0.2% human serum albumin, pH 7.4) for 60 minutes at room temperature. The reactions are terminated by rapid filtration through Whatman GF/C glass fibre filter plates. The filter plates were pre-soaked in 0.33% polethylenimine for 30 minutes at room temperature then washed in Wash Buffer (50 mM Hepes, 0.5 M NaCl pH 7.4) prior to harvesting. After harvesting, the filter plates are washed 3 times with 1 ml cold Wash Buffer then dried. Scintillant is then added to the plates and the radioactivity retained on the filters is determined on a Packard TopCount (Perkin Elmer). Specific binding is determined as total radioactive binding minus non-specific binding in the presence of 10 μM BW A868C. IC50s were determined using GraphPad prism analysis of drug titration curves.

| IC50 [1] | IC50 [2] | IC50 [3] | Structure (SMILES) |
| --- | --- | --- | --- |
| < 300 nM | < 0.3 µM | > 1000 nM | COc1ccc(CC(=O)O)cc1Oc1ccc(-c2ccccc2OC)cc1CN1C(=O)O[C@H](c2ccccc2)[C@@H]1C [Compound 1-37, {4-Methoxy-3-[2′-methoxy-3-((4S,5R)-4-methyl-2-oxo-5-phenyl-oxazolidin-3-ylmethyl)-biphenyl-4-yloxy]-phenyl}-acetic acid] |
| < 300 nM | < 0.3 µM | < 300 nM | C[C@H]1[C@@H](c2ccccc2)OC(=O)N1Cc1cc(Br)ccc1Oc1cc(F)cc(CC(=O)O)c1 [Compound 1-26, {3-[4-Bromo-2-((4S,5R)-4-methyl-2-oxo-5-phenyl-oxazolidin-3-ylmethyl)-phenoxy]-5-fluoro-phenyl}-acetic acid] |
| < 300 nM | < 0.3 µM | > 1000 nM | O=C(O)Cc1cccc(Oc2ccc(Br)cc2CN2C(=O)OC[C@@H]2Cc2ccccc2)c1 [Compound 1-46, {3-[2-((S)-4-Benzyl-2-oxo-oxazolidin-3-ylmethyl)-4-bromo-phenoxy]-phenyl}-acetic acid] |
| < 300 nM | < 0.3 µM | > 1000 nM | C[C@@H]1[C@H](c2ccccc2)OC(=O)N1Cc1cc(Br)ccc1Oc1cc(Cl)cc(CC(=O)O)c1 [Compound 1-56, {3-[4-Bromo-2-((4R,5S)-4-methyl-2-oxo-5-phenyl-oxazolidin-3-ylmethyl)-phenoxy]-5-chloro-phenyl}-acetic acid] |
| < 300 nM | 0.3 to 1 µM | > 1000 nM | COc1ccc(C(C)C(=O)O)cc1Oc1ccc(C(F)(F)F)cc1CN1C(=O)O[C@H](c2ccccc2)[C@@H]1C (stereo partly drawn) [Compound 1-44, 2-{4-Methoxy-3-[2-((4S,5R)-4-methyl-2-oxo-5-phenyl-oxazolidin-3-ylmethyl)-4-trifluoromethyl-phenoxy]-phenyl}-propionic acid] |
| < 300 nM | < 0.3 µM | > 1000 nM | C[C@H]1[C@@H](c2ccccc2)OC(=O)N1Cc1cc(Br)ccc1Oc1cc(CC(=O)O)cc(C(F)(F)F)c1 [Compound 1-28, {3-[4-Bromo-2-((4S,5R)-4-methyl-2-oxo-5-phenyl-oxazolidin-3-ylmethyl)-phenoxy]-5-trifluoromethyl-phenyl}-acetic acid] |
| < 300 nM | < 0.3 µM | > 1000 nM | COc1ccc(CC(=O)O)cc1Oc1ccc(C(F)(F)F)cc1CN1C(=O)O[C@H](c2ccccc2)[C@@H]1C [Compound 1-32, {4-Methoxy-3-[2-((4S,5R)-4-methyl-2-oxo-5-phenyl-oxazolidin-3-ylmethyl)-4-trifluoromethyl-phenoxy]-phenyl}-acetic acid] |
| < 300 nM | > 1 µM | > 1000 nM | O=C(O)Cc1cccc(Oc2ccc(-c3cccnc3)cc2CN2CCOC2=O)c1 [Compound 1-8, {3-[2-(2-Oxo-oxazolidin-3-ylmethyl)-4-pyridin-3-yl-phenoxy]-phenyl}-acetic acid] |
| 300 to 1000 nM | > 1 µM | < 300 nM | C[C@H]1[C@@H](c2ccccc2)OC(=O)N1Cc1cc(Br)ccc1Oc1ccc(Cl)c(CC(=O)O)c1 [Compound 1-24, {5-[4-Bromo-2-((4S,5R)-4-methyl-2-oxo-5-phenyl-oxazolidin-3-ylmethyl)-phenoxy]-2-chloro-phenyl}-acetic acid] |
| < 300 nM | > 1 µM | 300 to 1000 nM | C[C@H]1[C@@H](c2ccccc2)OC(=O)N1Cc1cc(-c2cncn2C)ccc1Oc1cccc(CC(=O)O)c1 [Compound 1-22, {3-[4-(3-Methyl-3H-imidazol-4-yl)-2-((4S,5R)-4-methyl-2-oxo-5-phenyl-oxazolidin-3-ylmethyl)-phenoxy]-phenyl}-acetic acid] |
| < 300 nM | > 1 µM | > 1000 nM | COc1ccc(CC(=O)O)cc1Oc1ccc(-c2ccc(F)cc2)cc1CN1C(=O)O[C@H](c2ccccc2)[C@@H]1C [Compound 1-36, {3-[4′-Fluoro-3-((4S,5R)-4-methyl-2-oxo-5-phenyl-oxazolidin-3-ylmethyl)-biphenyl-4-yloxy]-4-methoxy-phenyl}-acetic acid] |
| 300 to 1000 nM | > 1 µM | > 1000 nM | C[C@@H]1[C@H](c2ccccc2)OC(=O)N1Cc1cc(Br)ccc1Oc1ccc(C(F)(F)F)c(CC(=O)O)c1 [Compound 1-54, {5-[4-Bromo-2-((4R,5S)-4-methyl-2-oxo-5-phenyl-oxazolidin-3-ylmethyl)-phenoxy]-2-trifluoromethyl-phenyl}-acetic acid] |
| 300 to 1000 nM | > 1 µM | > 1000 nM | COc1ccc(CC(=O)O)cc1Oc1ccc(S(C)(=O)=O)cc1CN1C(=O)O[C@H](c2ccccc2)[C@@H]1C [Compound 1-34, {3-[4-Methanesulfonyl-2-((4S,5R)-4-methyl-2-oxo-5-phenyl-oxazolidin-3-ylmethyl)-phenoxy]-4-methoxy-phenyl}-acetic acid] |
| < 300 nM | 0.3 to 1 µM | > 1000 nM | O=C(O)Cc1cccc(Oc2ccc(-c3ccccc3)cc2CN2CCOC2=O)c1 [Compound 1-7, {3-[3-(2-Oxo-oxazolidin-3-ylmethyl)-biphenyl-4-yloxy]-phenyl}-acetic acid] |
| < 300 nM | < 0.3 µM | > 1000 nM | COc1ccc(CC(=O)O)cc1Oc1ccc(Br)cc1CN1C(=O)O[C@H]2Cc3ccccc3[C@H]21 [Compound 2-4, {3-[4-Bromo-2-((3aR,8aS)-2-oxo-8,8a-dihydro-3aH-indeno[1,2-d]oxazol-3-ylmethyl)-phenoxy]-4-methoxy-phenyl}-acetic acid] |
| < 300 nM | < 0.3 µM | > 1000 nM | O=C(O)Cc1cccc(Oc2ccc(C(F)(F)F)cc2CN2CCOC2=O)c1 [Compound 1-5, {3-[2-(2-Oxo-oxazolidin-3-ylmethyl)-4-trifluoromethyl-phenoxy]-phenyl}-acetic acid] |
| 300 to 1000 nM |  | < 300 nM | C[C@H]1[C@@H](c2ccccc2)OC(=O)N1Cc1cc(-c2cnc(N)cn2)ccc1Oc1cccc(CC(=O)O)c1 [Compound 1-20, {3-[4-(5-Amino-pyrazin-2-yl)-2-((4S,5R)-4-methyl-2-oxo-5-phenyl-oxazolidin-3-ylmethyl)-phenoxy]-phenyl}-acetic acid] |
